Measured values: patent US10550165B2, “Peptide for inducing regeneration of tissue and use thereof” (STEMRIM INC., priority 2011, dated 2020)
Entries after “also recorded” stand apart in the source; their conditions may differ.

Tested on: mouse bone marrow mesenchymal stem cell line (MSC-1 cells), PDGFRα-positive
Assay: Migration assay (Boyden / 48-well chemotaxis chamber) on bone marrow mesenchymal stem cell line MSC-1
Format: cell-based
Conditions: for activity of promoting the migration of MSC-1: peptides produced using HEK293, concentration not stated
Method: Cells of a mouse bone marrow mesenchymal stem cell line (MSC-1 cells, established by Tamai et al. of Osaka University (PDGFRα-positive cells in bone marrow are mobilized by high mobility group box 1 (HMGB1) to regenerate injured epithelia. (Tamai et al., Proc Natl Acad Sci USA. Apr. 4, 2011))) were detached from dishes using trypsin, and collected by centrifugation at 1200 rpm and 4° C. for 10 minutes. The resulting pellet was loosened and suspended at a cell concentration of 2.0×10^6 to 3.0×10^6 cells/ml by adding Dulbecco's Modified Eagle Medium (D-MEM) containing 10% fetal bovine serum (FBS). The recombinant protein and peptides produced in HEK293 were diluted with D-MEM containing 10% FBS. The negative control used was phosphate buffered saline (PBS). An acrylic Boyden chamber was used; cells of the mouse bone marrow mesenchymal stem cell line prepared at a cell concentration of 3×10^6 cells/ml were placed in its upper layer, while a diluted protein or peptide is added to the bottom layer. More specifically, a 28 μl aliquot of a protein or peptide solution was added to each well of the bottom plate of a 48-well chemotaxis chamber (NEURO PROBE 48WELL CHEMOTAXIS CHAMBER), and a polycarbonate membrane with 8 μm pores (Neuro Probe, Inc, Cat: 866-417-0014) was placed on the bottom plate. Then, an upper plate was placed on the membrane and screwed tightly. 50 μl of cells of the mouse bone marrow mesenchymal stem cell line after concentration adjustment were added to the upper plate wells. The chamber was placed in an incubator under 5% CO2 at 37° C. After four hours, the membrane was removed from the chamber and stained with Diff-Quik (Sysmex, Cat: 16920) to detect cells that migrated through membrane pores to the lower compartment.
The peptides listed below were custom synthesized using the solid phase method by Medical & Biological Laboratories (MBL). The peptides were synthesized based on the mouse HMGB1 sequence (SEQ ID NO: 3). Synthetic peptides described in subsequent Examples were also prepared based on the mouse HMGB1 sequence. • A synthetic peptide consisting of the amino acid sequence from positions 1 to 10 of HMGB1 (1-10); • a synthetic peptide consisting of the amino acid sequence from positions 1 to 34 of HMGB1 (1-34); • a synthetic peptide consisting of the amino acid sequence from positions 37 to 62 of HMGB1 (37-62); • a synthetic peptide consisting of the amino acid sequence from positions 27 to 62 of HMGB1 (27-62); • a synthetic peptide consisting of the amino acid sequence from positions 56 to 72 of HMGB1 (56-72); • a synthetic peptide consisting of the amino acid sequence from positions 11 to 20 of HMGB1 (11-20); • a synthetic peptide consisting of the amino acid sequence from positions 11 to 25 of HMGB1 (11-25); • a synthetic peptide consisting of the amino acid sequence from positions 11 to 30 of HMGB1 (11-30); • a synthetic peptide consisting of the amino acid sequence from positions 11 to 34 of HMGB1 (11-34); • a synthetic peptide consisting of the amino acid sequence from positions 11 to 44 of HMGB1 (11-44); • a synthetic peptide consisting of the amino acid sequence from positions 17 to 44 of HMGB1 (17-44); • a synthetic peptide consisting of the amino acid sequence from positions 1 to 25 of HMGB1 (1-25); and the whole mouse HMGB1 produced in HEK293 (1-215(HEK)) as a positive control were adjusted to 100 μg/ml and placed in the lower layer of a chemotaxis chamber to assess the migration-promoting activity on bone marrow mesenchymal stem cell line (MSC-1). Results
As positive controls, centrifuged supernatant of the skin of a one-day-old mouse (one individual) incubated in PBS at 4° C. for 12 hours, and the whole mouse HMGB1 (HMGB1(HEK_1-215)) produced in HEK293 were used. […]

[1] = synthetic peptides, 5 μM, FIGS. 8A and 8B
[2] = 2 μM, area of migrated cells by image analysis, FIG. 10
[3] = peptides produced using HEK293, 5, 15 and 25 μg/ml, FIG. 3
[4] = human HMGB1 fragments produced in E. coli, 2 μM, FIG. 18B
[5] = protein and peptides produced using HEK293 (mouse HMGB1), 50 μg/ml, 4 h, FIG. 2A

(1-25): synthetic peptide consisting of the amino acid sequence from positions 1 to 25 of HMGB1 (MGKGDPKKPRGKMSSYAFFVQTCRE; UniProt P09429 1-25, looked up, fragment)
migration-promoting activity (synthetic peptides, 100 μg/ml, positive control 1-215(HEK), FIG. 7): found to have the activity

(15-30): synthetic peptide consisting of the amino acid sequence from positions 15 to 30 of HMGB1 (SYAFFVQTCREEHKKK; UniProt P09429 15-30, looked up, fragment)
migration-promoting activity [1]: weak activity

peptide (1-44) produced in E. coli: amino acids of positions 1 to 44 of mouse HMGB1 produced using E. coli, tag removed by HRV3C (MGKGDPKKPRGKMSSYAFFVQTCREEHKKKHPDASVNFSEFSKK; UniProt P63158 1-44, looked up, fragment)
migration-promoting activity relative to the full-length HMGB1, compared per equal mass [2]: about 8 times | migration-promoting activity relative to the full-length HMGB1, compared per equal mole [2]: about 1.6 times

1-51: peptide comprising the amino acid sequence of positions 1 to 51, produced using HEK293 (MGKGDPKKPRGKMSSYAFFVQTCREEHKKKHPDASVNFSEFSKKCSERWKT; UniProt P09429 1-51, looked up, fragment)
activity of promoting the migration of MSC-1: showed the activity of promoting the migration of bone marrow mesenchymal stem line MSC-1

1-52: peptide comprising the amino acid sequence of positions 1 to 52, produced using HEK293 (MGKGDPKKPRGKMSSYAFFVQTCREEHKKKHPDASVNFSEFSKKCSERWKTM; UniProt P09429 1-52, looked up, fragment)
activity of promoting the migration of MSC-1: showed the activity of promoting the migration of bone marrow mesenchymal stem line MSC-1

(15-25): synthetic peptide consisting of the amino acid sequence from positions 15 to 25 of HMGB1 (SYAFFVQTCRE; UniProt P09429 15-25, looked up, fragment)
migration-promoting activity [1]: weak activity

(11-28): synthetic peptide consisting of the amino acid sequence from positions 11 to 28 of HMGB1 (GKMSSYAFFVQTCREEHK; UniProt P09429 11-28, looked up, fragment)
migration-promoting activity [1]: strong migration-promoting activity

1-48: peptide comprising the amino acid sequence of positions 1 to 48, produced using HEK293 (MGKGDPKKPRGKMSSYAFFVQTCREEHKKKHPDASVNFSEFSKKCSER; UniProt P09429 1-48, looked up, fragment)
activity of promoting the migration of MSC-1: showed the activity of promoting the migration of bone marrow mesenchymal stem line MSC-1

(12-30): synthetic peptide consisting of the amino acid sequence from positions 12 to 30 of HMGB1 (KMSSYAFFVQTCREEHKKK; UniProt P09429 12-30, looked up, fragment)
migration-promoting activity [1]: strong migration-promoting activity

(16-25): synthetic peptide consisting of the amino acid sequence from positions 16 to 25 of HMGB1 (YAFFVQTCRE; UniProt P09429 16-25, looked up, fragment)
migration-promoting activity [1]: weak activity

(13-30): synthetic peptide consisting of the amino acid sequence from positions 13 to 30 of HMGB1 (MSSYAFFVQTCREEHKKK; UniProt P09429 13-30, looked up, fragment)
migration-promoting activity [1]: strong migration-promoting activity

B1: 63-215: peptide of positions 63 to 215 of HMGB1, produced using HEK293 (protein, UniProt P63158 63-215, looked up, fragment)
chain: MAKADKARYEREMKTYIPPKGETKKKFKDPNAPKRPPSAFFLFCSEYRPKIKGEHPGLSIGDVAKKLGEMWNNTAADDKQPYEKKAAKLKEKYEKDIAAYRAKGKPDAAKKGVVKAEKSKKKKEEEDDEEDEEDEEEEEEEEDEDEEEDDDDE
migration-promoting activity [3]: exhibited migration-promoting activity in a concentration-dependent manner

B2: 2-215: human HMGB1 positions 2 to 215 produced in E. coli, nearly the full length, positive control (protein, UniProt P09429 2-215, looked up, fragment)
chain: GKGDPKKPRGKMSSYAFFVQTCREEHKKKHPDASVNFSEFSKKCSERWKTMSAKEKGKFEDMAKADKARYEREMKTYIPPKGETKKKFKDPNAPKRPPSAFFLFCSEYRPKIKGEHPGLSIGDVAKKLGEMWNNTAADDKQPYEKKAAKLKEKYEKDIAAYRAKGKPDAAKKGVVKAEKSKKKKEEEEDEEDEEDEEEEEDEEDEDEEEDDDDE
migration-promoting activity [4]: showed migration-promoting activity on bone marrow mesenchymal stem cells

B3: 45-215: peptide of positions 45 to 215 of HMGB1, produced using HEK293 (protein, UniProt P09429 45-215, looked up, fragment)
chain: CSERWKTMSAKEKGKFEDMAKADKARYEREMKTYIPPKGETKKKFKDPNAPKRPPSAFFLFCSEYRPKIKGEHPGLSIGDVAKKLGEMWNNTAADDKQPYEKKAAKLKEKYEKDIAAYRAKGKPDAAKKGVVKAEKSKKKKEEEEDEEDEEDEEEEEDEEDEDEEEDDDDE
migration-promoting activity [3]: exhibited migration-promoting activity in a concentration-dependent manner; also recorded: stronger as compared to 63-215

B4: 2-62: human HMGB1 fragment, positions 2 to 62, produced in E. coli (protein, UniProt P09429 2-62, looked up, fragment)
chain: GKGDPKKPRGKMSSYAFFVQTCREEHKKKHPDASVNFSEFSKKCSERWKTMSAKEKGKFED
migration-promoting activity [4]: showed migration-promoting activity on bone marrow mesenchymal stem cells

B5: 85-169: peptide of positions 85 to 169 of mouse HMGB1, produced using HEK293 (protein, UniProt P63158 85-169, looked up, fragment)
chain: TKKKFKDPNAPKRPPSAFFLFCSEYRPKIKGEHPGLSIGDVAKKLGEMWNNTAADDKQPYEKKAAKLKEKYEKDIAAYRAKGKPD
migration-promoting activity [5]: did not show detectable migration-promoting activity

B6: 1-84: peptide of positions 1 to 84 of mouse HMGB1, produced using HEK293 (protein, UniProt P63158 1-84, looked up, fragment)
chain: MGKGDPKKPRGKMSSYAFFVQTCREEHKKKHPDASVNFSEFSKKCSERWKTMSAKEKGKFEDMAKADKARYEREMKTYIPPKGE
migration-promoting activity [5]: showed migration-promoting activity

B7: 1-62: peptide comprising the amino acid sequence of positions 1 to 62, produced using HEK293 (protein, UniProt P63158 1-62, looked up, fragment)
chain: MGKGDPKKPRGKMSSYAFFVQTCREEHKKKHPDASVNFSEFSKKCSERWKTMSAKEKGKFED
activity of promoting the migration of MSC-1: showed the activity of promoting the migration of bone marrow mesenchymal stem line MSC-1
